ChEMBL document CHEMBL1149952, “Inhibition of human leukocyte elastase (HLE) by novel bicyclic -lactams” (Bioorg Med Chem Lett, 1993)
pKi: −log10 of the molar value.

How the values were obtained:
[1] = target: T1, Neutrophil elastase (Homo sapiens) (UniProt P08246)
T1 sequence (whole entry): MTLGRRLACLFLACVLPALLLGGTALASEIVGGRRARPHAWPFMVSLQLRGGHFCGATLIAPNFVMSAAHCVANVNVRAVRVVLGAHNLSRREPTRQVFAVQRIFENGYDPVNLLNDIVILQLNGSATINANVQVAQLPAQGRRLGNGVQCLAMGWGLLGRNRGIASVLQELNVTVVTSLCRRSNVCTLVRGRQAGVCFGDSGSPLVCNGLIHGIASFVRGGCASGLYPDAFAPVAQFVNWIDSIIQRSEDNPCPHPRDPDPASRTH
Description: Alkaline hydrolysis constant for the compound was determined against human leukocyte elastase (HLE)

Neutrophil elastase = target: T2, Neutrophil elastase (Homo sapiens, UniProt P08246); experiment: Inhibitory activity against human leukocyte elastase (HLE) was determined
T2 sequence (P08246 whole entry): T1 sequence (whole entry)

[2] = target: T1, Neutrophil elastase (Homo sapiens); remark: listed apart in the source
Description: Rate constant for the compound was determined against human leukocyte elastase (HLE)

[3] = target: T1, Neutrophil elastase (Homo sapiens); remark: listed apart in the source
Description: Rate constant for the compound was determined (k2/ki) against human leukocyte elastase (HLE)

| SMILES | kOH [1] [M⁻¹ s⁻¹] | pKi (Neutrophil elastase) | k off [2] [s⁻¹] | k on [3] [M⁻¹ s⁻¹] |
| --- | --- | --- | --- | --- |
| C[C@@H](O)[C@H]1C(=O)N2S/C(=C/C(=O)OC(C)(C)C)S[C@H]12 | 12 | 5.82 | 0.0014 | 1000 |
| C[C@@H](O)[C@@H]1C(=O)N2S/C(=C/C(=O)OC(C)(C)C)S[C@@H]12 | 10.3 | < 4.00 | – | – |
| C[C@@H](O)[C@H]1C(=O)N2C/C(=C/C(=O)OC(C)(C)C)S[C@H]12 | – | 5.40 | – | – |
| C[C@@H](OC(=O)Cc1ccccc1)[C@H]1C(=O)N2S/C(=C/C(=O)OC(C)(C)C)S[C@H]12 | 0.04 | 6.40 | 0.0004 | 970 |
| C[C@@H](O)[C@H]1C(=O)N2C/C(=C/C(=O)OC(C)(C)C)C[C@H]12 | – | < 4.00 | – | – |
| C[C@@H](O)[C@H]1C(=O)N2S/C(=C/C(=O)OC(C)(C)C)C[C@H]12 | – | 5.49 | – | – |
| C[C@@H](O)[C@H]1C(=O)N2S/C(=C\C(=O)OC(C)(C)C)S[C@H]12 | 3 | 4.92 | 0.002 | 150 |
